Literature values, collected in patent US10296863B2, “Wireless sensor devices for post-harvest crop quality and pest management” (priority 2017, dated 2019).
Where two headings read alike, the source gives them in different places.

Columns and labels:
[1] = tested on: resistant cigarette beetle
[2] = tested on: tobacco moth and susceptible cigarette beetle
[3] = tobacco temperature 16-20 °C (61-68 °F), 300 ppm phosphine at the bale/case centre

**Q.** For `P` [phosphine], which “Minimum Exposure Time to achieve 100% control” value [1, 3] is on record?
**A.** 12 days

**Q.** And the “Minimum Exposure Time to achieve 100% control” value ([1]; tobacco temperature 20-25 °C (68-77 °F), 300 ppm phosphine at the bale/case centre)?
**A.** 12 days

**Q.** What about the “Minimum Exposure Time to achieve 100% control” value ([1]; tobacco temperature 20-25 °C (68-77 °F), 700 ppm phosphine at the bale/case centre) of the same compound?
**A.** 10 days

**Q.** What about the “Minimum Exposure Time to achieve 100% control” value ([1]; tobacco temperature >25 °C (>77 °F), 300 ppm phosphine at the bale/case centre) of the same compound?
**A.** 12 days

**Q.** What about the “Minimum Exposure Time to achieve 100% control” value ([1]; tobacco temperature >25 °C (>77 °F), 600 ppm phosphine at the bale/case centre) of the same compound?
**A.** 6 days

**Q.** And the “Minimum Exposure Time to achieve 100% control” value [2, 3]?
**A.** 6 days

**Q.** And the “Minimum Exposure Time to achieve 100% control” value ([2]; tobacco temperature >20 °C (>68 °F), 200 ppm phosphine at the bale/case centre)?
**A.** 4 days
